From ChEMBL document CHEMBL1144384, “Hypoxia-selective activation of 5-fluorodeoxyuridine prodrug possessing indolequinone structure: radiolytic reduction and cytotoxicity characteristics” (Bioorg Med Chem Lett, 2005)

Experiment: Inhibitory concentration required to reduce cellular survival to 50% towards murine tumor EMT6/KU cell line
Assay type: functional, cell-based
Details: Mus musculus

With `O=c1[nH]c(=O)n([C@H]2C[C@H](O)[C@@H](CO)O2)cc1F` [FLOXURIDINE] the IC50 was 8.1 µM.
